Values quoted from earlier work as cited in patent US6352974B1, “Oral calcitonin pharmaceutical compositions and methods of making the same” (Eurand International S.p.A., priority 1996, dated 2002).

Details: typical activity

Salmon calcitonin
activity: up to 6500 IU/mg
